Test results taken from US10815230B2, “Casein kinase 1 delta inhibitor” (ELECTROPHORETICS LIMITED, priority 2015, dated 2020).

What was measured:
Experiment in all cases: KINOMEscan binding assay
Settings in all cases: read-out: % Ctrl @ 10000 nM
[1] = biological target: RIOK3 (Homo sapiens, UniProt O14730)
[2] = biological target: EGFR (Homo sapiens, UniProt P00533)
[3] = biological target: IKK-beta (Homo sapiens, UniProt O14920)
[4] = biological target: FES (Homo sapiens, UniProt P07332)
[5] = biological target: DRAK1 (Homo sapiens, UniProt Q9UEE5)
[6] = biological target: TNK1 (Homo sapiens, UniProt Q13470)
[7] = biological target: ABL1 (Q252H) non-phosphorylated (Homo sapiens, UniProt P00519, Q252H)
[8] = biological target: PIK3CG (Homo sapiens, UniProt P48736)
[9] = biological target: T1, VRK2 (Homo sapiens, UniProt Q86Y07)
T1 construct: purchased DiscoveRx (KINOMEscan, LeadHunter Discovery services)

[10] = biological target: CLK4 (Homo sapiens, UniProt Q9HAZ1)
[11] = biological target: MTOR (Homo sapiens, UniProt P42345)
[12] = biological target: CHEK2 (Homo sapiens, UniProt O96017)
[13] = biological target: SGK2 (Homo sapiens, UniProt Q9HBY8)
[14] = biological target: ACVRL1 (Homo sapiens, UniProt P37023)
[15] = biological target: ACVR1B (Homo sapiens, UniProt P36896)
[16] = biological target: FGFR1 (Homo sapiens, UniProt P11362)
[17] = biological target: DMPK (Homo sapiens, UniProt Q09013)
[18] = biological target: IKK-epsilon (Homo sapiens, UniProt Q14164)
[19] = biological target: EPHA4 (Homo sapiens, UniProt P54764)
[20] = biological target: RIPK5 (Homo sapiens, UniProt Q6XUX3)
[21] = biological target: STK36 (Homo sapiens, UniProt Q9NRP7)
[22] = biological target: RET (V804L) (Homo sapiens, UniProt P07949, V804L)
[23] = biological target: FER (Homo sapiens, UniProt P16591)
[24] = biological target: T2, YSK4 (Homo sapiens, UniProt Q56UN5)
T2 construct: purchased DiscoveRx (KINOMEscan, LeadHunter Discovery services)

[25] = biological target: OSR1 (Homo sapiens, UniProt O95747)
[26] = biological target: PHKG2 (Homo sapiens, UniProt P15735)
[27] = biological target: STK33 (Homo sapiens, UniProt Q9BYT3)
[28] = biological target: PCTK2 (Homo sapiens, UniProt Q00537)
[29] = biological target: GSK3A (Homo sapiens, UniProt P49840)
[30] = biological target: CLK3 (Homo sapiens, UniProt P49761)
[31] = biological target: SIK (Homo sapiens, UniProt P57059)
[32] = biological target: MET (Homo sapiens, UniProt P08581)
[33] = biological target: T3, ULK1 (Homo sapiens, UniProt O75385)
T3 construct: purchased DiscoveRx (KINOMEscan, LeadHunter Discovery services)

[34] = biological target: MYLK2 (Homo sapiens, UniProt Q9H1R3)
[35] = biological target: T4, WNK1 (Homo sapiens, UniProt Q9H4A3)
T4 construct: purchased DiscoveRx (KINOMEscan, LeadHunter Discovery services)

[36] = biological target: TAOK1 (Homo sapiens, UniProt Q7L7X3)
[37] = biological target: HIPK3 (Homo sapiens, UniProt Q9H422)
[38] = biological target: GSK3B (Homo sapiens, UniProt P49841)
[39] = biological target: PLK3 (Homo sapiens, UniProt Q9H4B4)
[40] = biological target: LCK (Homo sapiens, UniProt P06239)
[41] = biological target: TRPM6 (Homo sapiens, UniProt Q9BX84)
[42] = biological target: CDKL5 (Homo sapiens, UniProt O76039)
[43] = biological target: PRKCE (Homo sapiens, UniProt Q02156)
[44] = biological target: T5, ZAP70 (Homo sapiens, UniProt P43403)
T5 construct: purchased DiscoveRx (KINOMEscan, LeadHunter Discovery services)

Sequence of IKK-beta (O14920 whole entry): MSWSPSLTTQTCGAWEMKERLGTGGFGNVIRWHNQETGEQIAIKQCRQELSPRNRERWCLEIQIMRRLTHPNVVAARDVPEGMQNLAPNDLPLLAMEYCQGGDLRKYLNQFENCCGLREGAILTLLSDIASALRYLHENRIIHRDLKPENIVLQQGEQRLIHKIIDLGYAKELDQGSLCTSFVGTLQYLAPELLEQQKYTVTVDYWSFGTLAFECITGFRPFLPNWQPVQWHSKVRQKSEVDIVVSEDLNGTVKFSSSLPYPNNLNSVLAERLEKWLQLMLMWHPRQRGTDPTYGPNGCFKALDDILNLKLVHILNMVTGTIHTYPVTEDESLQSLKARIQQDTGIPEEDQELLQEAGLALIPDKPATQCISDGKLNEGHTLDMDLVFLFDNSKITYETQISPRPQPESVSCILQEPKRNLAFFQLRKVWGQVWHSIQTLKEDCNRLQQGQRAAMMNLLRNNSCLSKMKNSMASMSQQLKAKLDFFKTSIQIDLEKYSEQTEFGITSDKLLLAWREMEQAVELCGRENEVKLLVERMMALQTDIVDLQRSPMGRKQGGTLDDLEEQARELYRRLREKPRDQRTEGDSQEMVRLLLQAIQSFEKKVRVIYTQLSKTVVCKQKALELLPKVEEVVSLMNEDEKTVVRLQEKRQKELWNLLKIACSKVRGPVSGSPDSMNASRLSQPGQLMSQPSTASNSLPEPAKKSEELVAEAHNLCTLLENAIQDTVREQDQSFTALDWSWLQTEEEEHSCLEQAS
Sequence of DRAK1 (Q9UEE5 whole entry): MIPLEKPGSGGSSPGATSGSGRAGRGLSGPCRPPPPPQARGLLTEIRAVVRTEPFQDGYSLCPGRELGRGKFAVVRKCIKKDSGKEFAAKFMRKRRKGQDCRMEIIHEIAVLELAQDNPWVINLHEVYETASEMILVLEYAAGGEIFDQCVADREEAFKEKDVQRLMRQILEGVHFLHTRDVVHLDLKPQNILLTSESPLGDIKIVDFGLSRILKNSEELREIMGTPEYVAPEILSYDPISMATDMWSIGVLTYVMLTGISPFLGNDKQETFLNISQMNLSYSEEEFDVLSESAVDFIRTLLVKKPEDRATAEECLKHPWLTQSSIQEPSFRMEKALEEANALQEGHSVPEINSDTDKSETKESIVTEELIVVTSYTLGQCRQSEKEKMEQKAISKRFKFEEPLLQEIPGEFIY
Sequence of CHEK2 (O96017 whole entry): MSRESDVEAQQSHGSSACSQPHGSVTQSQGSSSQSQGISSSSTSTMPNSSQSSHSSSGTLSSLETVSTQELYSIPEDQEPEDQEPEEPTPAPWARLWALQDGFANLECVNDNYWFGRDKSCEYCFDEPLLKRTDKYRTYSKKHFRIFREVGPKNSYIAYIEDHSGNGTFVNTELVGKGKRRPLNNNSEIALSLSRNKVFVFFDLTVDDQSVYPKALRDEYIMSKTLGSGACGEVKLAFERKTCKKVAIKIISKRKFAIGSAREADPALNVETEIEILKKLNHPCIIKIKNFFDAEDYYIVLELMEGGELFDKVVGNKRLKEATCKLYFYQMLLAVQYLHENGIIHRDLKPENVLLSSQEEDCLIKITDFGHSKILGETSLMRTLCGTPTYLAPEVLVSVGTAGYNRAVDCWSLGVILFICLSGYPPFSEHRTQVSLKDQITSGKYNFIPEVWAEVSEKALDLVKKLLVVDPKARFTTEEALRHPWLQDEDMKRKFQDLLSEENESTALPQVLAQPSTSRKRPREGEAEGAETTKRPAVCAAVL
T2 sequence (Q56UN5 whole entry): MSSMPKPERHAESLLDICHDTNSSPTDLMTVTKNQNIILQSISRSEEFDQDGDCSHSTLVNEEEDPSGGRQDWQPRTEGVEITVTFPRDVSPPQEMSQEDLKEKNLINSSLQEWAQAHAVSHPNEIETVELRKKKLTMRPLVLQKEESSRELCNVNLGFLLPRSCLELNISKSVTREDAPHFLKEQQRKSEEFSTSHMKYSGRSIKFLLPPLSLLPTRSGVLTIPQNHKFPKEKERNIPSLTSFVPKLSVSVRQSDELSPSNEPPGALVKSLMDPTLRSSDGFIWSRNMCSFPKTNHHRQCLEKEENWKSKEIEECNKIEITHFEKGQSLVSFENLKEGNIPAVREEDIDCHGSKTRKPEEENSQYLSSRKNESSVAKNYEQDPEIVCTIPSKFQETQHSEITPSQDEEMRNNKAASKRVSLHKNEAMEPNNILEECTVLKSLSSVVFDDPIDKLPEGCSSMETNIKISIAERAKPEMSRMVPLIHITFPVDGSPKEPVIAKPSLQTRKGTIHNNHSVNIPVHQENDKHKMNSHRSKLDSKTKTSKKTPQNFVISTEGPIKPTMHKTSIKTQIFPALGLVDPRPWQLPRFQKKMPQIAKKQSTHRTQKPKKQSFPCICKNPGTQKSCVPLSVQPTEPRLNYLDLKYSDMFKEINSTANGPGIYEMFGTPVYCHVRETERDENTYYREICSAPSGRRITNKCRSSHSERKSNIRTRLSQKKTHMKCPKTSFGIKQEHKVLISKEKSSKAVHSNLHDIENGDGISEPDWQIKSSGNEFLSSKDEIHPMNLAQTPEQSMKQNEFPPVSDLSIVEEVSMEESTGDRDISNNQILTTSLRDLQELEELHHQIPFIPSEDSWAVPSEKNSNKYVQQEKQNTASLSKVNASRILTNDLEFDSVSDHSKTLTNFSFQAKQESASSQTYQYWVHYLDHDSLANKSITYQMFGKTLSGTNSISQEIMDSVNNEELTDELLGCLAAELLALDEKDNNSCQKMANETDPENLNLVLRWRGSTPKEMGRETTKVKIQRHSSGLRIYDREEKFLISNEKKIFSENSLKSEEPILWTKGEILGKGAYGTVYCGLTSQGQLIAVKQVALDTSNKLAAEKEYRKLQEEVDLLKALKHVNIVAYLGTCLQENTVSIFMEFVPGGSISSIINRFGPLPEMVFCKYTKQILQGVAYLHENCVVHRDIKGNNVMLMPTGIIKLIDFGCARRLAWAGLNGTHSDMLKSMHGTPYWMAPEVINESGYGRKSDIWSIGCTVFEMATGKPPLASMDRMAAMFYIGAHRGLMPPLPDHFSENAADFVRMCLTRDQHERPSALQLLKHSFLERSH
T1 sequence (Q86Y07 whole entry): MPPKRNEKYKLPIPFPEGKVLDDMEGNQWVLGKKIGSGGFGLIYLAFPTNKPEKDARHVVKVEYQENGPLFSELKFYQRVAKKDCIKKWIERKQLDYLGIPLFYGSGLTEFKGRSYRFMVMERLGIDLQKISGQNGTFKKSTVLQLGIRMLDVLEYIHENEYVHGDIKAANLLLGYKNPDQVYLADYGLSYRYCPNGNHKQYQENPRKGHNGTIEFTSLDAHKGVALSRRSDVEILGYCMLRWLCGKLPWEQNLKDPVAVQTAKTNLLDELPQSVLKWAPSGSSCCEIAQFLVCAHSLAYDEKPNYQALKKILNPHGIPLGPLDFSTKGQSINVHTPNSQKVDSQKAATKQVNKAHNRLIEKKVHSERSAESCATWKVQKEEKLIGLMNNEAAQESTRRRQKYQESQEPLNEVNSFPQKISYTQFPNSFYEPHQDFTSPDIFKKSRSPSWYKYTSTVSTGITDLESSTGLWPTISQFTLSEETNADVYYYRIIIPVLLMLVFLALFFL
Sequence of TNK1 (Q13470 whole entry): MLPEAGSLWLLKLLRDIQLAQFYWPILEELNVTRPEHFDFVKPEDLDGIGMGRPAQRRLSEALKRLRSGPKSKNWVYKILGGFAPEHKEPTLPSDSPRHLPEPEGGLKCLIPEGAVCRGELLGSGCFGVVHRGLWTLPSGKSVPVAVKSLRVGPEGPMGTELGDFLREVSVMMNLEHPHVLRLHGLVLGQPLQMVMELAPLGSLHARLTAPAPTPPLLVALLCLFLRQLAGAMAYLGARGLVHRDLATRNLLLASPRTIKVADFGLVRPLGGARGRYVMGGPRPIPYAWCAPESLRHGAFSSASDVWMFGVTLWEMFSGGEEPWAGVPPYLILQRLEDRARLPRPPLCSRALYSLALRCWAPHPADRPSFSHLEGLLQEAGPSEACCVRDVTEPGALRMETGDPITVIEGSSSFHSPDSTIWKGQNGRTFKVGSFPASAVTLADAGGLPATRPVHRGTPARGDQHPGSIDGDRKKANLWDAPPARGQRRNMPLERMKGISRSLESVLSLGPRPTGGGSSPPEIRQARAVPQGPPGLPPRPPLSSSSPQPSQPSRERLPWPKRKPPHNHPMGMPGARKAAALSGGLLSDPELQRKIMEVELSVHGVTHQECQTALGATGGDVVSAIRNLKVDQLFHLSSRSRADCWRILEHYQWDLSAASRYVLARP
Sequence of DMPK (Q09013 whole entry): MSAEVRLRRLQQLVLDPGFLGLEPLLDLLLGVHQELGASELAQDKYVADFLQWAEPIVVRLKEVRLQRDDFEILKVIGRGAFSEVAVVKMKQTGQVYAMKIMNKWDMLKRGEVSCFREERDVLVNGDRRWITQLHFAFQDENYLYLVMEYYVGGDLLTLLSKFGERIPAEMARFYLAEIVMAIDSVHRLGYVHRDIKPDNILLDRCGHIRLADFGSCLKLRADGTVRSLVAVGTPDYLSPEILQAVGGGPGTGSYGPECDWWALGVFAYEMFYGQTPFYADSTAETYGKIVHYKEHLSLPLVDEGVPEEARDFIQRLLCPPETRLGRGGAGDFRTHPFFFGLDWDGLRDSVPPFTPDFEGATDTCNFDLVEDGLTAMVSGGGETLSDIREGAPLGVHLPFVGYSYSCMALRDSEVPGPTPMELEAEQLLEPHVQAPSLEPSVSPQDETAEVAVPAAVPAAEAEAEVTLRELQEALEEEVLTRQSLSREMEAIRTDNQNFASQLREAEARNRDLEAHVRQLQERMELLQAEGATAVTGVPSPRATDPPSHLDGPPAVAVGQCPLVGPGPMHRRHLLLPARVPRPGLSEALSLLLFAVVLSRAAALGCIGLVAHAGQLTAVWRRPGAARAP

Nc1ncc(-c2nc3ccccc3o2)c(-c2ccncc2)n1 [Comparative Compound 324, 5-(1,3-benzoxazol-2-yl)-4-(pyridine-4-yl)pyrimidin-2-amine]
remaining binding at 10 µM [1]: 57% | remaining binding at 10 µM [2]: 100% | remaining binding at 10 µM [3]: 99% | remaining binding at 10 µM [4]: 78% | remaining binding at 10 µM [5]: 100% | remaining binding at 10 µM [6]: 97% | remaining binding at 10 µM [7]: 31% | remaining binding at 10 µM [8]: 32% | remaining binding at 10 µM [9]: 86% | remaining binding at 10 µM [10]: 83% | remaining binding at 10 µM [11]: 71% | remaining binding at 10 µM [12]: 100% | remaining binding at 10 µM [13]: 100% | remaining binding at 10 µM [14]: 100% | remaining binding at 10 µM [15]: 100% | remaining binding at 10 µM [16]: 98% | remaining binding at 10 µM [17]: 100% | remaining binding at 10 µM [18]: 82% | remaining binding at 10 µM [19]: 100% | remaining binding at 10 µM [20]: 96% | remaining binding at 10 µM [21]: 96% | remaining binding at 10 µM [22]: 86% | remaining binding at 10 µM [23]: 100% | remaining binding at 10 µM [24]: 88% | remaining binding at 10 µM [25]: 100% | remaining binding at 10 µM [26]: 100% | remaining binding at 10 µM [27]: 77% | remaining binding at 10 µM [28]: 99% | remaining binding at 10 µM [29]: 86% | remaining binding at 10 µM [30]: 99% | remaining binding at 10 µM [31]: 100% | remaining binding at 10 µM [32]: 91% | remaining binding at 10 µM [33]: 93% | remaining binding at 10 µM [34]: 100% | remaining binding at 10 µM [35]: 81% | remaining binding at 10 µM [36]: 100% | remaining binding at 10 µM [37]: 91% | remaining binding at 10 µM [38]: 95% | remaining binding at 10 µM [39]: 99% | remaining binding at 10 µM [40]: 88% | remaining binding at 10 µM [41]: 53% | remaining binding at 10 µM [42]: 97% | remaining binding at 10 µM [43]: 95% | remaining binding at 10 µM [44]: 78%

CNc1c(C(N)=O)c2ccccn2c1C(=O)c1ccc(F)cc1 [Compound A, 2-methyl-amino-3-[(4-fluorophenyl)carbonyl]indolizine-1-carboxamide]
remaining binding at 10 µM [1]: 72% | remaining binding at 10 µM [2]: 49% | remaining binding at 10 µM [3]: 90% | remaining binding at 10 µM [4]: 75% | remaining binding at 10 µM [5]: 95% | remaining binding at 10 µM [6]: 99% | remaining binding at 10 µM [7]: 11% | remaining binding at 10 µM [8]: 79% | remaining binding at 10 µM [9]: 35% | remaining binding at 10 µM [10]: 76% | remaining binding at 10 µM [11]: 96% | remaining binding at 10 µM [12]: 100% | remaining binding at 10 µM [13]: 100% | remaining binding at 10 µM [14]: 100% | remaining binding at 10 µM [15]: 100% | remaining binding at 10 µM [16]: 72% | remaining binding at 10 µM [17]: 100% | remaining binding at 10 µM [18]: 74% | remaining binding at 10 µM [19]: 98% | remaining binding at 10 µM [20]: 79% | remaining binding at 10 µM [21]: 69% | remaining binding at 10 µM [22]: 67% | remaining binding at 10 µM [23]: 98% | remaining binding at 10 µM [24]: 73% | remaining binding at 10 µM [25]: 99% | remaining binding at 10 µM [26]: 91% | remaining binding at 10 µM [27]: 72% | remaining binding at 10 µM [28]: 83% | remaining binding at 10 µM [29]: 56% | remaining binding at 10 µM [30]: 94% | remaining binding at 10 µM [31]: 83% | remaining binding at 10 µM [32]: 100% | remaining binding at 10 µM [33]: 86% | remaining binding at 10 µM [34]: 100% | remaining binding at 10 µM [35]: 69% | remaining binding at 10 µM [36]: 94% | remaining binding at 10 µM [37]: 79% | remaining binding at 10 µM [38]: 86% | remaining binding at 10 µM [39]: 85% | remaining binding at 10 µM [40]: 23% | remaining binding at 10 µM [41]: 69% | remaining binding at 10 µM [42]: 94% | remaining binding at 10 µM [43]: 96% | remaining binding at 10 µM [44]: 93%
